Measured values reported in publication PMC11436758, “Computer-aided drug design to generate a unique antibiotic family” (Nature Communications, 2024).

Key:
Assay in all cases: MIC alone and MIC of colistin in combination with DNM compounds
Assay type in all cases: cell-based
[1] = tested on: P. aeruginosa ATCC 27853; details: compound alone, bracket after colistin value is a range (0.25-4)
Experimental: (§1) The medium employed for the assay was Mueller Hinton II Broth (MHB II; Becton-Dickinson, Sparks, MD, USA). Agar plates used for the organisms were trypticase soy agar plus 5% sheep blood (BD; Sparks, MD, USA). MIC assay plates were prepared using the CLSI broth microdilution procedure. Automated liquid handlers (Multidrop 384, Biomek 2000 and Biomek FX) were used to conduct serial dilutions and liquid transfers. A standardized inoculum of each organism was prepared per CLSI methods. Suspensions were prepared to equal a 0.5 McFarland standard, followed by a 1:20 dilution in test media. The inocula were dispensed into sterile reservoirs divided by length (Beckman Colter) and the Biomek 2000 was used to inoculate the plates. Daughter plates were placed on the Biomek 2000 work surface in reverse orientation so that inoculation took place from low to high drug concentration. The Biomek 2000 delivered 10 μL of the diluted suspension into each well. These inoculations yielded a final cell concentration in the daughter plates of ~5 × 10^5 colony-forming units/mL in each well. The wells of the daughter plates ultimately contained 185 μL of broth, 5 μL of drug solution, and 10 μL of bacterial inoculum. Plates were covered with a sterile lid on the top plate, placed in plastic bags, and incubated at 35 °C for ~18 h. The microplates were viewed from the bottom using a plate viewer and the MIC was read. The MIC was recorded as the lowest concentration of drug that inhibited visible growth of the organism. Uninoculated solubility control plates were also observed for evidence of drug precipitation.
(§2) Compound K. pneumoniae A. baumannii E. coli P. aeruginosa […]
(§3) Supplementary Table 3. Minimum inhibitory concentration (MIC; µg/ml) of DNM
(§4) compounds that show potential synergy in combination with colistin. […]

[2] = tested on: E. coli ATCC 25922; details: compound alone, bracket after colistin value is a range (0.25-2)
Experimental: as §1, §2, §3, §4

[3] = tested on: K. pneumoniae MMX8390; details: compound alone
Experimental: as §1, §2, §3, §4

[4] = tested on: A. baumannii ATCC 19606; details: compound alone
Experimental: as §1, §2, §3, §4

Measured: MIC

CC(C)c1cc(Cl)ccc1-c1cc(C(N)=O)sc1-c1ccc(Cl)cc1C(C)C [DNM0650]
> 64 µg/mL: all assays above

Cc1cc(Cl)ccc1-c1cc(S(N)(=O)=O)sc1-c1ccc(Cl)cc1C [DNM0658]
> 64 µg/mL: all assays above
